For data set [1], the target named is PSD-95 (Homo sapiens, UniProt P78352). The note with it: Kornau, 1995; Aarts, 2002; cited from earlier work.
Data set [2] concerns Sprague-Dawley rats. The format is in vivo, rat. The method, then:
(§1) The peptides were prepared daily from lyophilized powder by dissolving them in normal saline to the final desired concentration. They were administered intravenously via a slow (4-5 min) injection by individuals blinded to the treatment group.
(§2) Experiments were performed in male adult Sprague-Dawley rats weighing 250-300 g (Charles River Laboratory, Canada). All procedures conformed to guidelines established by the Canadian Council on Animal Care and with the approval of the University Health Network animal care committee. All animals were housed in groups of 1-2 animals in cages with free access to food and water and in rooms having an ambient temperature of 20±1° C. and 12:12 hr light/dark cycle.
(§3) Each animal was weighed and then anesthesia was induced. For the permanent pial vessel occlusion model, rats were anesthetized with ketamine (100 mg/kg), acepromazine (2 mg/kg), and xylazine (50 mg/kg), supplemented with one third the initial dose as required. For the two permanent middle cerebral artery occlusion (pMCAO) studies, anesthesia was induced with 3.5% halothane in a mixture of nitrous oxide and oxygen (Vol. 2:1) and maintained with 0.8% halothane in the mixture. Rats were endotracheally intubated and mechanically ventilated (60 strokes/min, tidal volume of […]). A rectal temperature probe was inserted. Polyethylene catheters (PE-50) were introduced into the left femoral artery and vein for blood pressure recording, blood sampling, and drug injection. Mean arterial blood pressure was measured with the use of an indwelling femoral arterial catheter connected to a pressure transducer and was recorded continuously. Serial measurements were made of arterial blood gases, pH, and blood glucose.
The left middle cerebral artery was occluded by the intraluminal suture method described by Longa (1989). In brief, the left common carotid artery (CCA) was exposed through a midline neck incision and was dissected free from surrounding nerves and fascia, from its bifurcation to the base of the skull. The occipital artery branches of the external carotid artery (ECA) were then isolated, and these branches were dissected and coagulated. The ECA was dissected further distally and coagulated along with the terminal lingual and maxillary artery branches, which were then divided. The internal carotid artery (ICA) was isolated and carefully separated from the adjacent vagus nerve, and the pterygopalatine artery was ligated close to its origin. The tip of a 4-cm length of 3-0 monofilament nylon suture (Harvard Apparatus) was rounded by burning to achieve a tip diameter of 0.33-0.36 mm and tip length of 0.5-0.6 mm and coated with poly-L-lysine (Belayev et al., 1996). The suture was introduced through the CCA and advanced into the ICA and thence into the circle of Willis (about 18-20 mm from the carotid bifurcation), effectively occluding the middle cerebral artery. The silk suture around the CCA was tightened around the intraluminal nylon suture to secure it and permanently occlude the middle cerebral artery. Sham operated animals underwent the identical surgical procedure, including permanent ligation of the CCA, but without suture insertion to occlude the MCA. The pMCAO procedure was considered to be adequate if the animal's neurobehavioral score (below) exceeded 10 at 2 h after pMCAO. Animals were allowed to recover from anesthesia at room temperature.
At 24 h after pMCAO the animals were deeply anaesthetized employing halothane inhalation and the brains were quickly removed, sliced into 8 standard coronal sections, and incubated for 30 min in 2% triphenyltetrazolium chloride (TTC; Sigma, St. Louis, USA) in saline at 37° C. […] Each section was digitally photographed, and the infarcts were then traced onto templates representing the 8 standardized coronal slices. The use of the templates corrects for any brain edema produced by the infarct, allowing for a more accurate determination of infarct volume. […]

Data set [3] deals with Sprague-Dawley rats. Description: Core temperature after sham procedure with peptide injection. The settings on record: single i.v. injection of 3 nMole/g. In kind it is in vivo, rat. The method, then:
A day prior to undergoing ischemia, the animals were implanted with intraperitoneal transmitters (E-Mitter; Mini Mitter/Respironics, Oregon, USA) permitting core temperature (CT) and activity monitoring. Monitoring was performed continuously from 20 hours before, to 24 hours after, the pMCAO (Mini-Mitter VitalView telemetric monitoring software; Mini Mitter/Respironics, Oregon, USA). During the animal surgery the animals were away from the telemetric receivers, so CT was measured with a rectal probe and maintained at 36.5° C. to 37.5° C. using a heating lamp or homeothermic blanket. […] Temporalis muscle temperatures were measured with the same thermocouple probe inserted into the muscle through an 18 gauge needle. Cage temperatures were continuously recorded using an external temperature probe and software (Tektronix WaveStar software; Tektronix, Texas, USA) running on a digital oscilloscope and a separate computer. […]
Previous experience has shown that the neuroprotective effects of some anti-ischemic drugs might have been, at least in part, related to drug-induced hypothermia (e.g., MK-801; Corbett, 1990). […] To determine whether PSD-95 inhibition affected core temperature (CT), it was measured in rats (n=6) implanted with telemetric intra-peritoneal temperature monitors. […]

Data set [4] has as its system Sprague-Dawley rats. The format is in vivo, rat. The settings on record: pial vessel occlusion study. The method, then: as §1, §2
Each animal was weighed and then anesthesia was induced. For the permanent pial vessel occlusion model, rats were anesthetized with ketamine (100 mg/kg), acepromazine (2 mg/kg), and xylazine (50 mg/kg), supplemented with one third the initial dose as required. For the two permanent middle cerebral artery occlusion (pMCAO) studies, anesthesia was induced with 3.5% halothane in a mixture of nitrous oxide and oxygen (Vol. 2:1) and maintained with 0.8% halothane in the mixture. […] Mean arterial blood pressure was measured with the use of an indwelling femoral arterial catheter connected to a pressure transducer and was recorded continuously. […]

In data set [5] the test system is Sprague-Dawley rats. Put plainly: Physiological parameters in the pMCAO studies (body weight, MABP, blood gases, pH). The note with it: for pH: arterial blood; for pH / MABP / pCO2 / pO2: first line, time not given. In kind it is in vivo, rat. The method, then: as §3

Where two headings read alike, the source gives them in different places. No end group written: not given here.

Chain of PSD-95 (P78352 whole entry, species assumed): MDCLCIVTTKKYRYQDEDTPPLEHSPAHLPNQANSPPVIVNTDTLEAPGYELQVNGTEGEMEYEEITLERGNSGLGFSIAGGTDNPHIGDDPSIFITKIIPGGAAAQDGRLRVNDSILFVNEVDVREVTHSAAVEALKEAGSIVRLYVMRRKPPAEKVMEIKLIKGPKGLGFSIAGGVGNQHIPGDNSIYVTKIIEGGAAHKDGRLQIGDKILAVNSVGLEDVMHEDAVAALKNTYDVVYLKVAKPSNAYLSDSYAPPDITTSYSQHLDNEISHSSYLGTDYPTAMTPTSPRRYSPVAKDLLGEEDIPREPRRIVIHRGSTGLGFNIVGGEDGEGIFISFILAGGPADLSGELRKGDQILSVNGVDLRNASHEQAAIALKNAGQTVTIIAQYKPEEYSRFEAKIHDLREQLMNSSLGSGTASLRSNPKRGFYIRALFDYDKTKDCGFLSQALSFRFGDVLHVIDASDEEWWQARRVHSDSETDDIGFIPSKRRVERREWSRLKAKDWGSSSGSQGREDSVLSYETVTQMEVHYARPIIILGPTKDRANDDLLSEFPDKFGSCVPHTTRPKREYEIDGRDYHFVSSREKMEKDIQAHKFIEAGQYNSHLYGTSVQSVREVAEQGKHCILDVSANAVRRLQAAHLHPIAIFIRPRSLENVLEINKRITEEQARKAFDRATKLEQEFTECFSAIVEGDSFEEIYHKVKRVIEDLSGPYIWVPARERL

“KLSSIEADA [NR2B(ADA), reference compound]”: in data set [1], the “binding to PSD-95” value is reported as “incapable of binding PSD-95”.
“KLSSIETDV (PL protein motif) [NR2B9c(TDA)]”: in data set [1], the “binding to PSD-95” value is listed as “interacts with the PDZ2 domain of PSD-9S”.
YGRKKRRQRRRKLSSIESDV [Tat-NR2B9c(SDV)]: the “Post-op Deaths” value in data set [2] (pMCAO study #1, 0.3 nMole/g) was 1/1; in data set [2] (pMCAO study #1, 3.0 nMole/g), 1; in data set [2] (pMCAO study #2, 0.3 nMole/g) it was 1/1; in data set [4] (0.3 nMole/g), 0; in data set [4] (3.0 nMole/g), 0. Moreover, the “difference in core temperature versus sham (vehicle) animals” value in data set [3] (20 h before until 24 h after) is on record as “no differences in CT at any time point”. In addition, the “increase in core temperature after termination of anesthesia” value in data set [3] (no ischemia, n=6) was approximately 0.5 °C.
As to YGRKKRRQRRRKLSSIETDV [Tat-NR2B9c(TDV)], in data set [2] (pMCAO study #1, 0.3 nMole/g), the “Post-op Deaths” value was determined as 0. Further, in data set [2] (pMCAO study #1, 3.0 nMole/g), the “Post-op Deaths” value was 0. In data set [2] (pMCAO study #2, 0.3 nMole/g), the “Post-op Deaths” value came to 2. Moreover, the “Post-op Deaths” value in data set [2] (pMCAO study #2, 3.0 nMole/g) is listed as 3. In data set [5] (1st study, 0.3 nmol/g), the “MABP 10 min” value is 121.44 ± 5.23 mmHg, the “pCO2 10 min” value was determined as 39.33 ± 0.73 mmHg, the “pH 10 min” value is 7.44 ± 0.01 and the “pO2 10 min” value is given as 124.22 ± 6.34 mmHg. In data set [5] (1st study, 0.3 nmol/g), the “MABP 70 min” value amounted to 129.44 ± 6.54 mmHg, the “pCO2 70 min” value is 38.67 ± 0.93 mmHg, the “pH 70 min” value was 7.41 ± 0.01 and the “pO2 70 min” value turned out to be 137.67 ± 4.75 mmHg. In data set [5] (1st study, 0.3 nmol/g), this sequence came in with a pH of 7.42 ± 0.02, an MABP of 126.00 ± 5.54 mmHg, a pCO2 of 38.11 ± 0.81 mmHg and a pO2 of 131.44 ± 9.11 mmHg. Besides, in data set [5] (1st study, 3 nmol/g), the “MABP 10 min” value is listed as 140.63 ± 7.64 mmHg, the “pCO2 10 min” value is 40.25 ± 0.99 mmHg, the “pH 10 min” value is listed as 7.43 ± 0.01 and the “pO2 10 min” value turned out to be 136.00 ± 2.57 mmHg. In data set [5] (1st study, 3 nmol/g), the “MABP 70 min” value is 102.13 ± 2.39 mmHg, the “pCO2 70 min” value is recorded as 40.38 ± 0.84 mmHg, the “pH 70 min” value was determined as 7.40 ± 0.01 and the “pO2 70 min” value is on record as 132.25 ± 4.65 mmHg. In data set [5] (1st study, 3 nmol/g), this sequence came in with a pH of 7.44 ± 0.01, an MABP of 123.63 ± 6.27 mmHg, a pCO2 of 39.75 ± 0.70 mmHg and a pO2 of 130.63 ± 6.24 mmHg. Also, in data set [5] (2nd study, 0.3 nmol/g), the “MABP 10 min” value stood at 140.50 ± 4.69 mmHg, the “pCO2 10 min” value was 42.75 ± 0.59 mmHg, the “pH 10 min” value is on record as 7.38 ± 0.01 and the “pO2 10 min” value stood at 132.00 ± 4.92 mmHg. In data set [5] (2nd study, 0.3 nmol/g), the “MABP 70 min” value amounted to 129.25 ± 8.09 mmHg, the “pCO2 70 min” value is given as 41.75 ± 1.13 mmHg, the “pH 70 min” value was found to be 7.41 ± 0.01 and the “pO2 70 min” value stood at 121.00 ± 4.39 mmHg. In data set [5] (2nd study, 0.3 nmol/g), this sequence gave a pH of 7.38 ± 0.02, an MABP of 119.00 ± 4.11 mmHg, a pCO2 of 39.25 ± 1.06 mmHg and a pO2 of 133.13 ± 5.15 mmHg. Also, in data set [5] (2nd study, 3 nmol/g), the “pCO2 10 min” value was found to be 37.50 ± 0.80 mmHg, the “pH 10 min” value stood at 7.38 ± 0.02, the “pO2 10 min” value came to 120.13 ± 6.53 mmHg and the “MABP 70 min” value amounted to 130.25 ± 12.26 mmHg. In data set [5] (2nd study, 3 nmol/g), the “pCO2 70 min” value was determined as 40.88 ± 1.42 mmHg, the “pH 70 min” value is 7.39 ± 0.02, the “pO2 70 min” value turned out to be 124.63 ± 4.44 mmHg and the pH is on record as 7.41 ± 0.01. In data set [5] (2nd study, 3 nmol/g), this sequence showed an MABP of 124.13 ± 6.29 mmHg, a pCO2 of 38.63 ± 1.05 mmHg and a pO2 of 141.13 ± 10.44 mmHg.

These data come from US8685925B2, “Method and compositions for treating stroke with fever” (Nono Inc., priority 2006, dated 2014).
